Experimental data taken from patent US20220220103A1, “CYCLIN-DEPENDENT KINASE INHIBITORS” (SPV THERAPEUTICS INC., priority 2018, published 2022).
Where “and” joins values, the source holds several entries; their conditions need not be identical. Identical values can stand only once. Like-named read-outs stand apart in the source and are kept apart here.

Tests used:
Type in all cases: biochemical
[1] = molecular target: CDK4-CYCLIND1 (Homo sapiens, UniProt P11802); test: Microfluidic LabChip inhibition assay, CDK4-CYCLIND1; conditions: ATP 200 μM
Protocol: (§1) The reaction was terminated by the addition of EDTA. The plates were analyzed using a Caliper LabChip 3000.
(§2) Additional inhibition assays were performed as described above.

[2] = molecular target: CDK6-CYCLIND3 (Homo sapiens, UniProt Q00534); test: Microfluidic LabChip inhibition assay, CDK6-CYCLIND3; conditions: ATP 300 μM
Protocol: as §1, §2

[3] = molecular target: CDK2-CYCLINA (Homo sapiens, UniProt P24941); test: Microfluidic LabChip inhibition assay, CDK2-CYCLINA; conditions: ATP 50 μM
Protocol: as §1, §2

[4] = molecular target: CDK7 CyclinH (Homo sapiens, UniProt P50613); test: Inhibition assay, CDK7 CyclinH
Protocol: as §1, §2

[5] = molecular target: CDK9-CYCLINT1 (Homo sapiens, UniProt P50750); test: Microfluidic LabChip inhibition assay, CDK9-CYCLINT1; conditions: ATP 10 μM
Protocol: as §1, §2

[6] = molecular target: CDK1/B (Homo sapiens, UniProt P06493); test: Inhibition assay, CDK1/B; conditions: Table 3a; read-out: CDK1/B IC50
Protocol: as §1, §2

[7] = Table 2, 25° C., read-out: CDK4 IC50
[8] = Table 2, 25° C., read-out: CDK6 IC50
[9] = Table 3a, second values in parentheses on the line below, not explained, read-out: CDK4 CyclinD1 IC50
[10] = Table 3b, second values in parentheses on the line below, not explained, read-out: CDK4 CyclinD1 IC50
[11] = Table 3a, read-out: CDK6 CyclinD3 IC50

Sequence of CDK4-CYCLIND1 (P11802 whole entry): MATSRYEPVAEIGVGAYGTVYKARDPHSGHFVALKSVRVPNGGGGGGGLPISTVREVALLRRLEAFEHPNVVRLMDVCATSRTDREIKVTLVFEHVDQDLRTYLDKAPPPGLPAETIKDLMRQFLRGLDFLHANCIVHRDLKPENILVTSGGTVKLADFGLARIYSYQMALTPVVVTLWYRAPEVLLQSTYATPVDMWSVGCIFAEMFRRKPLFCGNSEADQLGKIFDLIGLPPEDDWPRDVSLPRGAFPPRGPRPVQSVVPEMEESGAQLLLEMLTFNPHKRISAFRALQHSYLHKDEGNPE
Sequence of CDK4-CYCLIND1 (P24385 whole entry partner): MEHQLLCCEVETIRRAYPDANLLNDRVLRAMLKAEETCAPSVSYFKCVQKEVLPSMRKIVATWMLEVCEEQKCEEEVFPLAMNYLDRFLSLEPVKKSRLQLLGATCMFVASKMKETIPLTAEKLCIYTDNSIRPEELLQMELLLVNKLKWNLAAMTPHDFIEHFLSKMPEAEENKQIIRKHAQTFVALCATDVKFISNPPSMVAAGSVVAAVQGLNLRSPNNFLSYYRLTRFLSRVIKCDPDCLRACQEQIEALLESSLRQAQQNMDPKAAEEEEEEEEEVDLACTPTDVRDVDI
Sequence of CDK1/B (P06493 whole entry): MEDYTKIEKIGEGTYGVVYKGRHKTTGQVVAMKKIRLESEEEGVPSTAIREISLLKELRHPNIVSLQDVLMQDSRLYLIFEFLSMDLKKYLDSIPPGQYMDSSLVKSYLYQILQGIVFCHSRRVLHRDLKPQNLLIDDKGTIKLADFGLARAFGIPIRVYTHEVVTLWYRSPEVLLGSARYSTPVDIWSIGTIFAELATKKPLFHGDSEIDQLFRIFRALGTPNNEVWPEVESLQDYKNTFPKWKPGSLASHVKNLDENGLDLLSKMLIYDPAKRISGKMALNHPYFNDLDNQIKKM
Sequence of CDK1/B (P14635 whole entry partner): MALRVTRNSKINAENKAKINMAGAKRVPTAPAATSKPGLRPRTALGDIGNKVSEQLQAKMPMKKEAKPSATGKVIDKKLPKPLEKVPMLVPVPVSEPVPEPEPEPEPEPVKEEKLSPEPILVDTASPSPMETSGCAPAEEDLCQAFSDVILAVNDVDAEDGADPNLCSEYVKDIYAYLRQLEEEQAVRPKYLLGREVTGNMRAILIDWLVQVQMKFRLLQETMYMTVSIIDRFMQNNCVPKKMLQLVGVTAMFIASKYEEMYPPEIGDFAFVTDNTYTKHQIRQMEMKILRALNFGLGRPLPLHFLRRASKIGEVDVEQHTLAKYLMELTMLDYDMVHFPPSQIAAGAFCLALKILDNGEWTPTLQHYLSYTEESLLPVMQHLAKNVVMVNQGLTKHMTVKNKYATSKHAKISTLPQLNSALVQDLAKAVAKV
Sequence of CDK6-CYCLIND3 (Q00534 whole entry): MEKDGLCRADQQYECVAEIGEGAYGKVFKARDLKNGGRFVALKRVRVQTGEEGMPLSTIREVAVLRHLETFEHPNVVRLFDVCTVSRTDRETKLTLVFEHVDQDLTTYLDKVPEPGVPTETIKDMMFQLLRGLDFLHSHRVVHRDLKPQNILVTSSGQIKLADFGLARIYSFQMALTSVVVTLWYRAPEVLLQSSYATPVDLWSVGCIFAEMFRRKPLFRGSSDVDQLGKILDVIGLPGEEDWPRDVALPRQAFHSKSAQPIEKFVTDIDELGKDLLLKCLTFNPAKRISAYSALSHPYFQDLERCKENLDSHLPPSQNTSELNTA
Sequence of CDK6-CYCLIND3 (P30281 whole entry partner): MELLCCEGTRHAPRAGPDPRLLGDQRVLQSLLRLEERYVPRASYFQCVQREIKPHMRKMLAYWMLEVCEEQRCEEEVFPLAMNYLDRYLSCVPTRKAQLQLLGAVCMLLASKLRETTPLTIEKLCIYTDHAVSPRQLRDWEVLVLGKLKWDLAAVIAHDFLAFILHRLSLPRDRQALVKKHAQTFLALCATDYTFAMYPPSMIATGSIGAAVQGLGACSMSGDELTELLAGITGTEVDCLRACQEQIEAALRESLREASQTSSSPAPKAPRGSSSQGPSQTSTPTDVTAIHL
Sequence of CDK9-CYCLINT1 (P50750 whole entry): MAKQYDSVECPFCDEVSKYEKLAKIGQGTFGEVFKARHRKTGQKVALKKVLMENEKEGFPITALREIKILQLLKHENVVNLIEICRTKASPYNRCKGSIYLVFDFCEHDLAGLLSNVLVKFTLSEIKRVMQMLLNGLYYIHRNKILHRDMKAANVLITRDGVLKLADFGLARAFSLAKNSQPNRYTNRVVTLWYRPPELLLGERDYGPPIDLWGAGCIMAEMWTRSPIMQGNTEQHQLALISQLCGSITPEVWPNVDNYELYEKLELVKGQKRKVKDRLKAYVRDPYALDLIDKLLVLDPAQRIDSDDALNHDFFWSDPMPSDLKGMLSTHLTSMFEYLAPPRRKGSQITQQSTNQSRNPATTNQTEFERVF
Sequence of CDK9-CYCLINT1 (O60563 whole entry partner): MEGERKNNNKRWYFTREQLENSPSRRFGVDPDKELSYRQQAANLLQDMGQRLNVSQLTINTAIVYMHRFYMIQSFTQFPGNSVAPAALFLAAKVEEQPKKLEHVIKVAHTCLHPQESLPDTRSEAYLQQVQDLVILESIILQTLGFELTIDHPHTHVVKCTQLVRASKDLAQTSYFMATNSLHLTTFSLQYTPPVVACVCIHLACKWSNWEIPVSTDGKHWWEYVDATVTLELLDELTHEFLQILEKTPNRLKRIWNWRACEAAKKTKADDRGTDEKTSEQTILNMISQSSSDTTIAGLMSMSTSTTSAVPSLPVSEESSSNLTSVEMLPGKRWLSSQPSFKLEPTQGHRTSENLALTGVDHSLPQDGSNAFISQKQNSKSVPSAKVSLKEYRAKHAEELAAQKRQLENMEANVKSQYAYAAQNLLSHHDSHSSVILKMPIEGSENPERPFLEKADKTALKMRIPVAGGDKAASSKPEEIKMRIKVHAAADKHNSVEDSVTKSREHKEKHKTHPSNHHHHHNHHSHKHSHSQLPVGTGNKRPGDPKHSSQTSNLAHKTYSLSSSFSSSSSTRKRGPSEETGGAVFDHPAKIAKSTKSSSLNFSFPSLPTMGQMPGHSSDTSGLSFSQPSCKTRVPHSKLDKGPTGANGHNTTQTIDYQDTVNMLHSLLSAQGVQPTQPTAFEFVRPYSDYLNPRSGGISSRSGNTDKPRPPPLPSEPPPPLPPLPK
Sequence of CDK7 CyclinH (P50613 whole entry): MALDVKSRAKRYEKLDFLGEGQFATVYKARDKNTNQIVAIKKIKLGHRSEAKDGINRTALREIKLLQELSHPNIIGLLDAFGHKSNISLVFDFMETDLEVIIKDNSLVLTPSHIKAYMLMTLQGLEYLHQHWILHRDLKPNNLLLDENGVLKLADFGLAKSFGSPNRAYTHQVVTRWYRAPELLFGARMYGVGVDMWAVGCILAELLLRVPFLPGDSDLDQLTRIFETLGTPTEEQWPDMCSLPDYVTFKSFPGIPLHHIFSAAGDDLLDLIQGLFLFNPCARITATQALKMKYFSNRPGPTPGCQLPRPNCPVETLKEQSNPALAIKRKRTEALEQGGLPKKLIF
Sequence of CDK7 CyclinH (P51946 whole entry partner): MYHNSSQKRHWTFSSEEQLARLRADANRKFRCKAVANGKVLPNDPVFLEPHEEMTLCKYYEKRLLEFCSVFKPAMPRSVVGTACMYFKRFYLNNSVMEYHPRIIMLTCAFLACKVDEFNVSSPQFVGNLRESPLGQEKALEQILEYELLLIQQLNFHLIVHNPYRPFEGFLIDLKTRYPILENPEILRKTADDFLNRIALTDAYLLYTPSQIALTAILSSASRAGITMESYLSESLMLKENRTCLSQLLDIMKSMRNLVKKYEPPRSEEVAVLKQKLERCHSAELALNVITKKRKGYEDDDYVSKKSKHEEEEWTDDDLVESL
Sequence of CDK7 CyclinH (P51948 whole entry partner): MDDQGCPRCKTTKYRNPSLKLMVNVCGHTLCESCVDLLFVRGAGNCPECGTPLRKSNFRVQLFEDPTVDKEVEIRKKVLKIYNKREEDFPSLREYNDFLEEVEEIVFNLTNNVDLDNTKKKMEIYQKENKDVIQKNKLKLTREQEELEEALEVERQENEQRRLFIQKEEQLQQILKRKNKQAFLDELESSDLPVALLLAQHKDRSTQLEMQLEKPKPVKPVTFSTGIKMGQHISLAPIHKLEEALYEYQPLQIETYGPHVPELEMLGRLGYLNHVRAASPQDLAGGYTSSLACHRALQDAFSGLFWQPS

IC50 [1, 9]	IC50 [1, 10]	IC50 [2, 11]	SMILES	also measured
			CN(C)[C@H]1CCN(c2ccc(Nc3ncc4cc(C#N)c(=O)n(C5CCCC5)c4n3)cc2)C1 [Compound B42, (S)-8-cyclopentyl-2-((4-(3-(dimethylamino)pyrrolidin-1-yl)phenyl)amino)-7-oxo-7,8-dihydropyrido[2,3-d]pyrimidine-6-carbonitrile]	IC50 [1, 7]: 2.31 nM; IC50 [2, 8]: 6.01 nM
			CN(C)[C@H]1CCN(c2ccc(Nc3ncc4cc(C#N)c(=O)n(C5CCCC5)c4n3)nc2)C1 [Compound B43, (S)-8-cyclopentyl-2-((5-(3-(dimethylamino)pyrrolidin-1-yl)pyridin-2-yl)amino)-7-oxo-7,8-dihydropyrido[2,3-d]pyrimidine-6-carbonitrile]	IC50 [1, 7]: 46.9 nM; IC50 [2, 8]: 61.5 nM
			CN(C)[C@H]1CCN(c2ccc(Nc3ncc4cc(C#N)c(=O)n(C5CCCC5)c4n3)cn2)C1 [Compound B44, (S)-8-cyclopentyl-2-((6-(3-(dimethylamino)pyrrolidin-1-yl)pyridin-3-yl)amino)-7-oxo-7,8-dihydropyrido[2,3-d]pyrimidine-6-carbonitrile]	IC50 [1, 7]: 10.6 nM; IC50 [2, 8]: 30.9 nM
			CN(C)[C@H]1CCN(c2ccc(Nc3ncc4cc(C#N)c(=O)n(C5CCCC5)c4n3)cc2F)C1 [Compound B45, (S)-8-cyclopentyl-2-((4-(3-(dimethylamino)pyrrolidin-1-yl)-3-fluorophenyl)amino)-7-oxo-7,8-dihydropyrido[2,3-d]pyrimidine-6-carbonitrile]	IC50 [1, 7]: 3.68 nM; IC50 [2, 8]: 9.86 nM
3 nM and 1.6 nM	3 nM and 1.6 nM	10.1 nM	CC(=O)c1c(C)c2cnc(Nc3ccc(OCCN(C)C)cc3)nc2n(C2CCCC2)c1=O [Compound B60, 6-acetyl-8-cyclopentyl-2-((4-(2-(dimethylamino)ethoxy)phenyl)amino)-5-methylpyrido[2,3-d]pyrimidin-7(8H)-one]	IC50 ([3]; Table 3a): 77.5 nM; IC50 ([3]; Table 3b): 77.5 nM; IC50 ([4]; Table 3a): 1100 nM; IC50 ([4]; Table 3b): 1100 nM; IC50 ([5]; Table 3a): 31.8 nM; IC50 ([5]; Table 3b): 31.8 nM
1600 nM	1600 nM	3950 nM	CC(=O)c1c(C)c2cnc(Nc3ccc(OCCN(C)C)c(C)c3)nc2n(C2CCCC2)c1=O [Compound B61, 6-acetyl-8-cyclopentyl-2-((4-(2-(dimethylamino)ethoxy)-3-methylphenyl)amino)-5-methylpyrido[2,3-d]pyrimidin-7(8H)-one]	IC50 ([3]; Table 3a): 7730 nM; IC50 ([3]; Table 3b): 7730 nM; IC50 ([4]; Table 3a): > 100000 nM; IC50 ([4]; Table 3b): > 100000 nM; IC50 ([5]; Table 3a): 790 nM; IC50 ([5]; Table 3b): 790 nM
26.3 nM and 14 nM	26.3 nM and 14 nM	37.5 nM	COc1cc(Nc2ncc3c(C)c(C(C)=O)c(=O)n(C4CCCC4)c3n2)ccc1OCCN(C)C [Compound B62, 6-acetyl-8-cyclopentyl-2-((4-(2-(dimethylamino)ethoxy)-3-methoxyphenyl)amino)-5-methylpyrido[2,3-d]pyrimidin-7(8H)-one]	IC50 ([3]; Table 3a): 280 nM; IC50 ([3]; Table 3b): 280 nM; IC50 ([4]; Table 3a): 1300 nM; IC50 ([4]; Table 3b): 1300 nM; IC50 ([5]; Table 3a): 336 nM; IC50 ([5]; Table 3b): 336 nM
8.64 nM and 6.36 nM	8.64 nM and 6.36 nM	37 nM	CC(=O)c1c(C)c2cnc(Nc3ccc(OCCN(C)C)nc3)nc2n(C2CCCC2)c1=O [Compound B63, 6-acetyl-8-cyclopentyl-2-((6-(2-(dimethylamino)ethoxy)pyridin-3-yl)amino)-5-methylpyrido[2,3-d]pyrimidin-7(8H)-one]	
8.22 nM	8.22 nM	76.1 nM	CC(=O)c1c(C)c2cnc(Nc3ccc(N(C)CCN(C)C)cc3)nc2n(C2CCCC2)c1=O [Compound B64, 6-acetyl-8-cyclopentyl-2-((4-((2-(dimethylamino)ethyl)(methyl)amino)phenyl)amino)-5-methylpyrido[2,3-d]pyrimidin-7(8H)-one]	
1.47 nM	1.47 nM	46.7 nM	CC(=O)c1c(C)c2cnc(Nc3ccc(OCCN(C)C)cn3)nc2n(C2CCCC2)c1=O [Compound B65, 6-acetyl-8-cyclopentyl-2-((5-(2-(dimethylamino)ethoxy)pyridin-2-yl)amino)-5-methylpyrido[2,3-d]pyrimidin-7(8H)-one]	
48.8 nM	48.8 nM	298 nM	CC(=O)c1c(C)c2cnc(Nc3ccc(OCCN4CCCCC4)cn3)nc2n(C2CCCC2)c1=O [Compound B67, 6-acetyl-8-cyclopentyl-5-methyl-2-((5-(2-(piperidin-1-yl)ethoxy)pyridin-2-yl)amino)pyrido[2,3-d]pyrimidin-7(8H)-one]	
7.4 nM	7.4 nM	76.2 nM	CN1CCN(c2ccc(Nc3ncc4cc(C(=O)N(C)C)c(=O)n(C5CCCC5)c4n3)cc2F)CC1 [Compound B139, 8-cyclopentyl-2-((3-fluoro-4-(4-methylpiperazin-1-yl)phenyl)amino)-N,N-dimethyl-7-oxo-7,8-dihydropyrido[2,3-d]pyrimidine-6-carboxamide]	
715 nM	715 nM	1990 nM	CN1CCN(c2ccc(Nc3ncc4cc(C(=O)N(C)C)c(=O)n(C5CCCC5)c4n3)nc2)CC1 [Compound B141, 8-cyclopentyl-N,N-dimethyl-2-((5-(4-methylpiperazin-1-yl)pyridin-2-yl)amino)-7-oxo-7,8-dihydropyrido[2,3-d]pyrimidine-6-carboxamide]	
17 nM		134 nM	CNC(=O)c1cc2cnc(Nc3ccc(N4CCN(C)CC4)cc3)nc2n(C2CCCC2)c1=O [Compound B143, 8-cyclopentyl-N-methyl-2-((4-(4-methylpiperazin-1-yl)phenyl)amino)-7-oxo-7,8-dihydropyrido[2,3-d]pyrimidine-6-carboxamide]	
13.6 nM and 10 nM	13.6 nM and 10 nM	138 nM	CNC(=O)c1cc2cnc(Nc3ccc(N4CCN(C)CC4)c(F)c3)nc2n(C2CCCC2)c1=O [Compound B144, 8-cyclopentyl-2-((3-fluoro-4-(4-methylpiperazin-1-yl)phenyl)amino)-N-methyl-7-oxo-7,8-dihydropyrido[2,3-d]pyrimidine-6-carboxamide]	
370 nM	370 nM	2240 nM	CNC(=O)c1cc2cnc(Nc3ccc(N4CCN(C)CC4)nc3)nc2n(C2CCCC2)c1=O [Compound B145, 8-cyclopentyl-N-methyl-2-((6-(4-methylpiperazin-1-yl)pyridin-3-yl)amino)-7-oxo-7,8-dihydropyrido[2,3-d]pyrimidine-6-carboxamide]	
459 nM	459 nM	1490 nM	CC(=O)NC(=O)c1cc2cnc(Nc3ccc(N4CCN(C)CC4)cn3)nc2n(C2CCCC2)c1=O [Compound B146, N-acetyl-8-cyclopentyl-2-((5-(4-methylpiperazin-1-yl)pyridin-2-yl)amino)-7-oxo-7,8-dihydropyrido[2,3-d]pyrimidine-6-carboxamide]	
47 nM	47 nM	81.7 nM	N#Cc1cc2cnc(Nc3ccc(N4CCNCC4)c(F)c3)nc2n(C23CC(C2)C3)c1=O [Compound B147, 8-(bicyclo[1.1.1]pentan-1-yl)-2-((3-fluoro-4-(piperazin-1-yl)phenyl)amino)-7-oxo-7,8-dihydropyrido[2,3-d]pyrimidine-6-carbonitrile]	
59.6 nM	59.6 nM	102 nM	CN1CCN(c2ccc(Nc3ncc4cc(C#N)c(=O)n(C56CC(C5)C6)c4n3)cc2F)CC1 [Compound B148, 8-(bicyclo[1.1.1]pentan-1-yl)-2-((3-fluoro-4-(4-methylpiperazin-1-yl)phenyl)amino)-7-oxo-7,8-dihydropyrido[2,3-d]pyrimidine-6-carbonitrile]	
< 3.2 nM	< 3.2 nM		CC(=O)c1c(C)c2cnc(Nc3ccc(N4CC(C)NC(C)C4)cc3)nc2n(C2CCCC2)c1=O (stereo not shown) [Compound B150, 6-acetyl-8-cyclopentyl-2-((4-(3,5-dimethylpiperazin-1-yl)phenyl)amino)-5-methylpyrido[2,3-d]pyrimidin-7(8H)-one]	IC50 [6]: 501 nM; IC50 ([3]; Table 3a): 196 nM; IC50 ([3]; Table 3b): 196 nM; IC50 ([4]; Table 3a): 655 nM; IC50 ([4]; Table 3b): 655 nM
			CC(=O)c1c(C)c2cnc(Nc3ccc(N(C)CCN(C)C)cc3)nc2n(C23CC(C2)C3)c1=O [Compound B154, 6-acetyl-8-(bicyclo[1.1.1]pentan-1-yl)-2-((4-((2-(dimethylamino)ethyl)(methyl)amino)phenyl)amino)-5-methylpyrido[2,3-d]pyrimidin-7(8H)-one]	IC50 [6]: 1720 nM; IC50 ([3]; Table 3a): 1520 nM; IC50 ([3]; Table 3b): 1520 nM; IC50 ([4]; Table 3a): 785 nM; IC50 ([4]; Table 3b): 785 nM
< 3.2 nM	< 3.2 nM		CC(=O)c1c(C)c2cnc(Nc3ccc(N(C)CCN(C)C)cc3)nc2n(C2CCCC2)c1=O [Compound B155, 6-acetyl-8-cyclopentyl-2-((4-((2-(dimethylamino)ethyl)(methyl)amino)phenyl)amino)-5-methylpyrido[2,3-d]pyrimidin-7(8H)-one]	IC50 [6]: 172 nM; IC50 ([3]; Table 3a): 81.6 nM; IC50 ([3]; Table 3b): 81.6 nM; IC50 ([4]; Table 3a): 468 nM; IC50 ([4]; Table 3b): 468 nM
			CN1CCN(c2ccc(Nc3ncc4cc(C#N)c(=O)n(C5CCCC5)c4n3)cc2)CC1 [ON123300]	IC50 [1, 7]: 1.68 nM; IC50 [2, 8]: 4.76 nM
